The test system of one series is anaesthetized rats. As to the kind of experiment: Reduction of blood pressure in anaesthetized rats on intravenous infusion. The settings on record: n=3, Mean ± SEM. Type of series: in vivo, rat. The source says:
The vasodilatory effect of the prostaglandin analogues was also studied in the rat by registering the blood pressure reducing effect. This is a relevant […] model for showing general vasodilatory effect of importance for inducing erection since vasodilation in penis is needed for achieving erection. Rats were anaesthetized with a mixture of ketarnine and xylazin and the prostaglandin analogues were infused intravenously. The blood pressure was continuously registered in a femoral artery. Each analogue was infused in 3 escalating doses in the same animal. […] In all experiments the blood pressure reduction was transient and the blood pressure increased immediately after termination of the infusion. The analogues were used both as esters and acids for the experiments.

For series [1], the system named is cat eyes. As to the kind of experiment: Irritant effect in cat eyes (behavioural model, eyelid closure). Format: in vivo. The settings on record: for Maximum irritative effect: scale 0-3, Mean ± SEM (n = 3-6); for irritant effect (in words): cat eye, topical single dose. Here is the method:
The irritant effect of the prostaglandin analogues was tested using a behavioural model in cats. In this model the irritant effect on the eye is studied by registering the degree of eyelid closure and the behaviour of the animals. Compounds that cause discomfort and pain in the eye cause the animals to close their eyes. The analogues were applied as carboxylic acid esters, to enhance bioavailability, topically on the eye as a single dose at different dose levels. The animals were then followed for several hours at regular intervals. Each compound and dose was tested on a group of 3-6 cats. At least 3 days elapsed between two consecutive tests on the same animals. An arbitrary scale from 0 (absence of irritation) to 3 (marked irritation), with half steps was used.

The subject of the next series is rabbits. The settings on record: Hall and Jaitly, 1977; cited from earlier work.
Series [2] has as its system rabbit penile blood vessels. As to the kind of experiment: Vasodilatory effect on isolated rabbit penile blood vessels precontracted with norepinephrine (myograph). Format: cell-based. The settings on record: FIG. 2; precontracted with 10^−6 M norepinephrine; normalized to papaverine. Here is the method:
The solution also contained indomethacin at a final concentration of about 3 μM, and was continuously bubbled by 95% O2 and 5%CO2. The temperature was kept constant at 37° C. The vessels were stretched and then precontracted using 10^-6 M norepinephrine, and the vasorelaxant effect of the prostaglandin analogues was normalized by comparing it to that of papaverine in the same preparation. Cumulative concentration-response curves were constructed for the analogues.

Series [3] concerns cat eyes. The series can be described thus: Irritant effect in cat eyes (behavioural model, eyelid closure). The settings on record: cat eye. Type of series: in vivo.
In series [4] the test system is human corpus cavernosum tissue. The series can be described thus: Relaxation of isolated human corpus cavernosum tissue precontracted with norepinephrine. Format: cell-based. The settings on record: for Reduction in tension (%): precontracted with 10^−6 M norepinephrine, compared to carbachol (10^−6 M), Mean ± SEM; for Reduction in tension (%) / EC50: n=8; for EC50: relaxation of tissue precontracted with 10^−6 M norepinephrine. Here is the method:
Human penile cavernous tissue was obtained fresh from surgery, and representative tissue samples were mounted in smooth muscle tissue baths containing a modified Kreb's solution consisting of NaCl 119 mM, KCl 4.6 mM, MgCl2 1.2 mM, NaH2PO4 1.2 mM, NaHCO3 15 mM, CaCl2 1.5 mM and glucose 11 mM. The solution also contained indomethacin at a final concentration of about 3 μM. The solution was continuously bubbled by 95% O2 and 5% CO2, and the temperature was kept at 37° C.
The tissue preparations were stretched by a force corresponding to 500 mg, and were given a contractile tone by the addition of norepinephrine at a concentration of 10^−6 M. Concentration-response curves were then constructed by adding cumulatively increasing concentrations of the prostaglandin analogues to the bath in a routine way. The relaxant effect was normalized by comparing to that of carbachol in the same preparation.

The test system of series [5] is cat eyes. The series can be described thus: Intraocular pressure in cats by pneumatonometry after topical administration. Format: in vivo. The settings on record: 3 cats, local anaesthesia; before treatment 16.3+/−0.9 mmHg; vehicle eye 16.3 and 15.7 mmHg. As to the method:
To confirm that 19R-OH-PGE2-methyl ester, which is more hydrophilic than PGE1-isopropyl ester, indeed penetrates into the cornea and the intraocular parts of the eye we measured the intraocular pressure in 3 cats under local anaesthesia before and 1 hour after topical administration of the prostaglandin to the eye. The intraocular pressure was measured by pneumatonometry. One eye was treated with the test compound and the other eye received the vehicle only. In the eyes treated topically with 19R-OH-PGE2-methyl ester the intraocular pressure decreased from 16.3+/−0.9 mmHg to 12.7+/−1.2 mmHg, whereas it was 16.3+/−0.9 mmHg and 15.7+/−0.7 mmHg in the control eyes at the same time points. It is well known that prostaglandins reduce the intraocular pressure in cats (Bito et al., 1989), and it can thus be taken as an evidence that the drug has penetrated into the eye. […] Thus the absence of pain and irritation after administration of 18RS-OH-PGE2, 19R-OH-PGE2 and 20OH-PGE2 cannot be explained on the basis of increased hydrophilicity and poor bioavailability.

A short description of series [6]: log P estimated by thin layer chromatography. Format: physicochemical. The settings on record: estimated from thin layer chromatography with PGF2α isopropyl ester as reference.
For series [7] the following is noted: reference value used for the TLC estimate; cited from earlier work.
The mark [8] stands for this setting: 7.5-10 μg/kg intravenous infusion.
Setting [9] is: 25-35 μg/kg intravenous infusion.

What is called EC50 is the concentration giving half of the maximal effect. One may read the chromatographic logP as a lipophilicity value derived from retention on a column.

On to 18RS-OH-PGE2, for which the “Reduction (%) of blood pressure” value in the series on anaesthetized rats (setting [8]) is recorded as 15 ± 3%; in the series on anaesthetized rats (setting [9]) it was 32 ± 2%.
Regarding `CCC(O)CC[C@H](O)/C=C/[C@H]1[C@H](O)CC(=O)[C@@H]1C/C=C\CCCC(=O)OC` (stereo partly shown) [18RS-OH-PGE2-me, 18RS-Hydroxy PGE2 Methyl Ester], the Maximum irritative effect worked out at 0.0 ± 0.0 with cat eyes [1] (Dose 1 μg topically on eye), 0.0 ± 0.0 in the series on cat eyes [1] (Dose 3 μg topically on eye), 0.0 ± 0.0 with cat eyes [1] (Dose 10 μg topically on eye) and 0.3 ± 0.2 in the series with cat eyes [1] (Dose 30 μg topically on eye). Besides, in the series with cat eyes [1], the “irritant effect (in words)” value is listed as “no or markedly reduced irritant effect, even at doses 1000 times higher than PGE1-isopropyl ester”.
In the case of `C[C@@H](O)CCC[C@H](O)/C=C/[C@H]1[C@H](O)CC(=O)[C@@H]1C/C=C\CCCC(=O)O` [19R-OH-PGE2, 19R-hydroxy-prostaglandin E2], the “Reduction (%) of blood pressure” value with anaesthetized rats (setting [8]) is 31 ± 3%; in the series with anaesthetized rats (setting [9]), 43 ± 6%. In addition, the “lid closure and irritant effect in rabbit eye (in words)” value in the series on rabbits was “does not cause lid closure in rabbits but induces an irritant effect by inducing swelling of the ocular structures”. The “vasodilatory effect (in words)” value in series [2] is “the same efficacy in inducing vasodilatation and were also about equipotent”. Besides, in the series on cat eyes [3], the “irritation by swelling of the ocular structures (in words)” value was “no evidence of such irritation”. In addition, the “factor by which concentration-response curves of PGE1 and 19R-OH-PGE2 differ” value in series [4] (FIG. 1, 19R-OH-PGE2 about half to one third as potent as PGE1) is 2-3. The “Reduction in tension (%)” value in [4] came to 96.9 ± 3.1%. A half-maximal effect in series [4] (EC50) was put at 0.69 µM.
Regarding `COC(=O)CCC/C=C\C[C@H]1C(=O)C[C@@H](O)[C@@H]1/C=C/[C@@H](O)CCC[C@@H](C)O` [19R-OH-PGE2-me, 19-R-Hydroxy-prostaglandin E2-Methyl Ester], the “intraocular pressure 1 hour after topical administration” value in the series on cat eyes [5] is given as 12.7+/−1.2 mmHg. Also, the Maximum irritative effect in the series on cat eyes [1] (Dose 0.1 μg topically on eye) is 0.0 ± 0.0; in the series on cat eyes [1] (Dose 1 μg topically on eye), 0.1 ± 0.1; in the series on cat eyes [1] (Dose 10 μg topically on eye), 0.1 ± 0.1; in the series with cat eyes [1] (Dose 100 μg topically on eye) it was 0.7 ± 0.4. Moreover, the “irritant effect (in words)” value in the series on cat eyes [1] is recorded as “no or markedly reduced irritant effect, even at doses 1000 times higher than PGE1-isopropyl ester”.
For `O=C(O)CCC/C=C\C[C@H]1C(=O)C[C@@H](O)[C@@H]1/C=C/[C@@H](O)CCCCCO` [20-OH-PGE2, 20-hydroxy PGE2], the “Reduction (%) of blood pressure” value in the series on anaesthetized rats (setting [8]) came out at 38 ± 3%; in the series with anaesthetized rats (setting [9]) it was 44 ± 0%.
As for `COC(=O)CCC/C=C\C[C@H]1C(=O)C[C@@H](O)[C@@H]1/C=C/[C@@H](O)CCCCCO` [20-OH-PGE2-me, 20-OH-Prostaglandin E2-Methyl Ester], the Maximum irritative effect in the series with cat eyes [1] (Dose 3 μg topically on eye) amounted to 0.5 ± 0.0; with cat eyes [1] (Dose 10 μg topically on eye), 1.2 ± 0.2; with cat eyes [1] (Dose 30 μg topically on eye), 1.2 ± 04.
For the molecule `C[N+](C)(C)CCOC(N)=O` [Carbachol, reference compound], in series [4], the “Reduction in tension (%)” value was found to be 100.0 ± 0.0%.
Regarding `CCCCC[C@H](O)/C=C/[C@H]1[C@H](O)CC(=O)[C@@H]1CCCCCCC(=O)O` [PGE1, prostaglandin E1, reference compound], the “Reduction (%) of blood pressure” value in the series with anaesthetized rats (setting [8]) is 35 ± 5%; with anaesthetized rats (setting [9]) it was 52 ± 3%. For the same molecule, the “vasodilatory effect (in words)” value in series [2] was “the same efficacy in inducing vasodilatation and were also about equipotent”. The molecule also gave an EC50 in series [4] (Homo sapiens) of 0.25 µM. Moreover, the “Reduction in tension (%)” value in series [4] is 90.9 ± 3.7%. Moreover, the chromatographic logP in series [6] was 0.7. The Maximum irritative effect in the series on cat eyes [1] (Dose 0.1 μg topically on eye) stood at 0.6 ± 0.1; in the series with cat eyes [1] (Dose 1 μg topically on eye), 1.6 ± 0.2; in the series on cat eyes [1] (Dose 10 μg topically on eye), 3.0 ± 0.0.
Regarding `CCCCC[C@H](O)/C=C/[C@H]1[C@H](O)CC(=O)[C@@H]1CCCCCCC(=O)OC(C)C` [PGE1-ie, PGE1-isopropyl ester, reference compound], the Maximum irritative effect with cat eyes [1] (Dose 0.01 μg topically on eye) was found to be 0.4 ± 0.2; in the series on cat eyes [1] (Dose 0.1 μg topically on eye) it was 1.7 ± 0.3; with cat eyes [1] (Dose 0.3 μg topically on eye), 2.8 ± 0.1.
As for `CCCCC[C@H](O)/C=C/[C@@H]1[C@@H](C/C=C\CCCC(=O)OC(C)C)[C@@H](O)C[C@H]1O` [PGF2α isopropyl ester], in series [7], the “log P of reference” value is “(log P 4.5). ie = isopropyl ester, me = methyl ester”.

Values taken from patent US6476074B1, “Method and composition for treatment of erectile dysfunction” (Synphora AB, priority 1997, dated 2002).
